The text below walks through data of patent US20260027096A1, “PHD INHIBITORS” (Oxford University Innovation Limited, priority 2023, published 2026).

In one experiment the test system is human THP-1 cells. As to the kind of experiment: Proliferation and apoptosis of THP-1 cells. Particulars: THP-1, 50 μM. Type of experiment: cell-based. The text has this: (§1) Viable cells were counted by trypan blue exclusion at the indicated time points. To analyse cells undergoing apoptosis, cells were suspended in binding buffer containing PE-conjugated Annexin-V or FITC-conjugated Annexin-V, and either PI or DAPI.
To determine consequences of Daprodustat (2) and IOX5 (68, example 46) treatment on AML cells driven by the MLL-AF9→MEIS1/HOXA9 axis, mouse iMLL-AF9-and Meis1Hoxa9-transformed AML cells were employed, as well as human THP-1 cells, which harbour the MIL-AF9 translocation. […] Thus, providing compelling evidence that PHD inhibition compromises AML cells driven by the MLL-AF9→MEIS1/HOXA9 axis.

For experiment [1], the system named is BNIP3 mRNA in human AML cells. As to the kind of experiment: qPCR of BNIP3 (BAX, BAK) in human AML cells. In kind it is cell-based. Particulars: for BNIP3 mRNA expression: MOLM13, OCI-AML3, MV411 and THP-1 cells; for BNIP3, BAX and BAK transcripts (qPCR): MOLM-13 cells, 50 μM. The protocol: RNA was isolated using Direct-zol RNA Miniprep kit (Zymo Research, #R2051) and reverse transcribed using High-Capacity cDNA Reverse Transcription Kit (Applied Biosystems). For real-time quantitative PCR (qPCR), 5 ng of cDNA, 5 μL of PowerUp SYBR Green MasterMix (Applied Biosystems) and 2 pmol of primers were used per well of 384-well plate. Reactions were performed in triplicate using C1000 Thermocycler 384well (BioRad). Gene expression was quantified using comparative AA-Ct method and ACTB was used as the housekeeping gene. Data is expressed as log 2 fold change in comparison to control sample and represents results of three independent experiments measured in duplicate.
Given that the primary function of PHD2 is to promote HIF-α degradation, HIF-1α levels were measured following the treatment of AML cells with PHD inhibitors. […] To investigate whether HIF-α mediates the anti-leukaemic effects of PHD inhibition, Meis1/Hoxa9-transformed AML cells lacking both Hif1α and Hif2α and control cells were employed (Vukovic et al., 2015). […] Next, to investigate a molecular mechanism behind the anti-leukaemic effect of PHD inhibition, HIF-dependent transcripts that were dysregulated were interrogated via (68, example 46)-treatment in murine cells.
For orientation: Quantitative PCR measures a nucleic acid by following its amplification.

In experiment [2] the test system is primary human AML cells (patient samples). Put plainly: Apoptosis of primary human AML patient samples. Type of experiment: cell-based. Particulars: 50 μM. The protocol:
Frozen AML samples were retrieved from Barts Cancer Institute Biobank and quickly thawed at 37° C. Upon thawing, T cells were depleted from all samples using EasySep™ Human TCR Alpha/Beta Depletion Kit (Stem Cell Technologies, #17847). Enriched samples were plated in concentration 0.4-1.0×10^6/mL in Myelocult H5100 medium (Stem Cell Technologies, #05150) supplemented with 20 ng/ml IL-3, G-CSF and TPO (Biolegend) in co-culture with irradiated MS-5 cells and treated with 50 μM Dap, 50 μM IOX5 (68, example 46), 1 μM Venetoclax or vehicle control for 7 days. After 3 days of treatment, half the sample was used for plating CFU assays and initial analyses, the other half was given fresh medium containing the corresponding agent. After 7 days, viable cell numbers were counted, viability was assessed using Annexin V FITC/PI stain, cell cycle was measured using PI, and the expression of CD45, CD34, CD11b and CD14 was determined. CFC assays were counted 11 days after plating. Samples were deemed sensitive to treatment if either a decrease in viability or a decrease in proliferation, as validated by cell cycle phase distribution, was detected.
To investigate the clinical utility of PHD inhibition in human AML, it was next determined the impact of Dap or IOX5 (68, example 46) on AML patient samples (FIG. 29), focusing on poor-risk AML, which is characterised by a particularly low overall patient survival rate^73.
Finally, the clinical applicability of PHD inhibition in AML was validated by treating independent patient-derived primary AML cells with Daprodustat (2) and IOX5 (68, example 46). […] Taken together, Examples 163 to 167 provide genetic and pharmacological evidence that PHD inhibition is a plausible therapeutic strategy in AML.

For experiment [3], the system named is murine AML cells harbouring FLT3-ITD mutations (with and without NPM1 mutations), PML-RARα and AML1-ETO. As to the kind of experiment: Proliferation and apoptosis of murine AML cells with other drivers. Type of experiment: cell-based, mouse.
Text: as §1
To validate the anti-leukaemic effect of PHD inhibition on AML cells transformed by drivers independent from the MLL/Meis1/Hoxa9 axis, murine AML cells harbouring FLT3-ITD mutations were employed (with and without NPM1 mutations), PML-RARα and AML1-ETO.

Experiment [4] has as its system K562, OCI-AML3, KASUMI1, MV-4-11 and MOLM13 cells. As to the kind of experiment: Proliferation and apoptosis of human leukaemic cell lines. In kind it is cell-based. Particulars: 50 μM.
Text: as §1
To examine the impact of PHD inhibition in human leukaemia cells with other mutational backgrounds, different myeloid leukaemia cells were used, namely K562 (CML, with BCR-ABL translocation), OCL-AML3 cells (AML with DNMT3A, NRAS and NPM1 mutations), KASUMI1 cells (AML with AML-ETO translocation), MV-4-11 (AML with FLT3-ITD mutation), and MOLM13 (AML with FLT3-ITD mutation and MLL-AF9 translocation). […] Thus, multiple potent PHD inhibitors, with distinct mode of action, compromise leukaemic cells independently from their mutational status.

The subject of experiment [5] is HIF-1α in MOLM13, OCI-AML3, MV411 and THP-1 cells. Put plainly: Western blot of HIF-1α in human AML cell lines. The settings on record: for HIF-1α protein level (immunoblot): human AML cell lines, 50 μM, 48 hrs. Type of experiment: cell-based. As to the method:
Total protein extracts (45 μg) were subjected to SDS-PAGE (NuPAGE™ 4-12% Bis-Tris Plus Gel, ThermoFisher Scientific, NP0323BOX) and then transferred onto a polyvinylidene difluoride membranes using wet transfer. Membranes were blocked in 5% milk-TBST (TBS with 0.1% Tween20) and probed with anti-HIF1-α (Novus Biological, NB100-105, 1:1000, ON at 4° C.) and anti-β-actin (Cell Signalling Technology, #3700, 1:10 000, ON at 4° C.). After incubation with appropriate horseradish peroxidase- coupled secondary antibody (Cell Signalling Technology, Anti-mouse IgG, #7076, 1:2000, 2 h at room temperature), proteins were detected with Clarity Western ECL Substrate (BioRad, #1705061) and acquired on the Amersham Imager 600 (GE Healthcare Life Sciences).
Equipped with currently available PHD inhibitors and newly generated IOX5 (68, example 46), the impact of pharmacological PHD inhibition on AML cells was assessed. […] Thus, while PHD inhibition consistently stabilises HIF-1α protein across all tested AML cell lines, HIF-2α stabilisation is variable and cell line-specific.

Entries after “also recorded” stand apart in the source; their conditions may differ.

On to `O=C(O)CNC(=O)c1c(O)n(C2CCCCC2)c(=O)n(C2CCCCC2)c1=O` [Daprodustat, daprodustat, reference compound], for which, in the experiment on human THP-1 cells, the apoptosis result is on record as “induced their apoptosis” and the proliferation entry is recorded as “compromised their proliferative capacity”. Besides, in experiment [1], the “BNIP3 mRNA expression” value is “strongly induced BNIP3 expression”; the “BNIP3, BAX and BAK transcripts (qPCR)” value is “upregulation of BNIP3 was found, as well as its downstream effectors BAX and BAK”. In experiment [2], the “apoptosis of primary human AML cells” value is reported as “significantly increased primary human AML cell apoptosis”. The “apoptosis of primary human AML cells” value in experiment [2] (listed as Dap) is reported as “clearly increased apoptosis”. Besides, in experiment [3], the “apoptosis (Annexin-V+DAPI+)” value is “induced apoptosis” and the proliferation result was “reduced the proliferative rate”. Also, in experiment [4], the apoptosis entry is listed as “induced their apoptosis” and the proliferation entry was “consistently compromised the proliferation”. For the same compound, the “HIF-1α protein level (immunoblot)” value in experiment [5] is reported as “strongly stabilised HIF-1a; also recorded: increased HIF-1α levels”.
With `O=C(NCC1CCC(C(F)(F)F)CC1)c1c[nH]c(-n2cccn2)cc1=O` (stereo not shown) [IOX5], in the experiment with human THP-1 cells, the apoptosis entry is on record as “induced their apoptosis” and the proliferation entry is recorded as “compromised their proliferative capacity”. In addition, in experiment [1], the “BNIP3 mRNA expression” value is recorded as “strongly induced BNIP3 expression”; the “BNIP3, BAX and BAK transcripts (qPCR)” value is “upregulation of BNIP3 was found, as well as its downstream effectors BAX and BAK”. The “apoptosis of primary human AML cells” value in experiment [2] was “clearly increased apoptosis; also recorded: significantly increased primary human AML cell apoptosis”. In addition, in experiment [3], the “apoptosis (Annexin-V+DAPI+)” value is reported as “induced apoptosis” and the proliferation result is given as “reduced the proliferative rate”. Also, in experiment [4], the apoptosis entry is “induced their apoptosis” and the proliferation entry is on record as “consistently compromised the proliferation”. For the same compound, the “HIF-1α protein level over time (western blot)” value in experiment [5] (THP-1 cells, continuous treatment for 96 hours) is listed as “substantially stabilised after 3-12 hours, its levels decreased between 24-48 hours, then increased 72-96 hours after treatment initiation”. Besides, the “HIF-1α protein level (immunoblot)” value in experiment [5] is given as “strongly stabilised HIF-1a; also recorded: increased HIF-1α levels”.
